Data reported in ChEMBL document CHEMBL5674860, “Optimized Dual-Glo Assay to identify co-culture-induced drug vulnerabilities in 3D CRC models” (2024).

How the values were obtained:
Assay type in all cases: functional, Homo sapiens
Set-up in all cases: dose or concentration left out as unconfirmed
[1] = test system: Colon cancer organoid; test: Optimized Dual-Glo assay to identify co-culture induced drug vulnerabilities using donated chemical probes and chemogenomics kinase set in O20 CRC organoid and F20 CAF mono and co-culture. […] Cell viability is reported both mono and co-culture models.
[2] = test system: Colon cancer organoid; test: Optimized Dual-Glo assay to identify co-culture induced drug vulnerabilities using donated chemical probes and chemogenomics kinase set in O06 CRC organoid and F06 CAF mono and co-culture. […] Cell viability is reported both mono and co-culture models.
[3] = test system: Colon cancer organoid; test: Optimized Dual-Glo assay to identify co-culture induced drug vulnerabilities using donated chemical probes and chemogenomics kinase set in O14 CRC organoid and F14 CAF mono and co-culture. […] Cell viability is reported both mono and co-culture models.
[4] = Culture type Co-Culture, Transduced with Lucferase2-P2A-EGFP lentivirus
[5] = Culture type Co-Culture, Transduced with Renilla-dsRed lentivirus
[6] = Culture type Mono-Culture, Transduced with Lucferase2-P2A-EGFP lentivirus
[7] = Culture type Mono-Culture, Transduced with Renilla-dsRed lentivirus

| SMILES | Cell Viability [1, 4] [%] | Cell Viability [1, 5] [%] | Cell Viability [1, 6] [%] | Cell Viability [1, 7] [%] | Cell Viability [2, 4] [%] | Cell Viability [2, 5] [%] | Cell Viability [2, 6] [%] | Cell Viability [2, 7] [%] | Cell Viability [3, 4] [%] | Cell Viability [3, 5] [%] | Cell Viability [3, 6] [%] | Cell Viability [3, 7] [%] |
| --- | --- | --- | --- | --- | --- | --- | --- | --- | --- | --- | --- | --- |
| COc1ccccc1S(=O)(=O)Nc1ccc2c(c1)CN(C)C(=O)N2 | 111.384 | 99.8859 | 75.6376 | 98.229 | 75.1061 | 112.248 | 98.6756 | 116.533 | 98.1337 | 101.069 | 91.805 | 99.3977 |
| COc1cc2c(cc1NS(=O)(=O)c1ccc(Br)cc1C)n(C)c(=O)n2C | 86.3374 | 193.757 | 91.9028 | 113.163 | 53.0589 | 146.987 | 78.5311 | 120.075 | 78.4023 | 92.6515 | 95.4962 | 108.084 |
| CCOc1cc(N2CCC(O)CC2)ccc1Nc1ncc2c(n1)N(C1CCCC1)CCC(=O)N2C | 51.9112 | 144.517 | 36.2832 | 127.288 | 80.3618 | 151.464 | 49.5621 | 184.932 | 86.8191 | 245.351 | 52.078 | 149.574 |
| O=C1CCc2cc(Nc3cc(OC4CCOCC4)c([N+](=O)[O-])cc3Cl)ccc2N1 | 150.133 | 114.972 | 136.194 | 114.49 | 112.978 | 126.115 | 116.283 | 106.249 | 95.0687 | 106.674 | 142.925 | 117.869 |
| CCNC(=O)c1cc2c(N3CCOC[C@@H]3C)ccnc2n1C | 107.341 | 102.95 | 119.318 | 105.417 | 128.018 | 156.16 | 122.983 | 98.196 | 83.5289 | 107.252 | 73.6623 | 93.9449 |
| CCc1cc(Nc2nccc(-c3c(-c4ccc(OC)c(C(=O)Nc5c(F)cccc5F)c4)nc4ccccn34)n2)c(OC)cc1N1CCC(N2CCN(S(C)(=O)=O)CC2)CC1 | 116.043 | 82.2783 | 81.9449 | 100.572 | 86.7992 | 78.7013 | 91.9397 | 111.569 | 94.7667 | 100.13 | 92.2589 | 95.6551 |
| Cc1c(C(=O)O)cc(-c2ccc(C3CCNCC3)cc2)c2ccc(-c3ccc(C(F)(F)F)cc3)cc12.Cl | 115.549 | 99.1911 | 103.532 | 103.975 | 69.2582 | 93.9723 | 78.1885 | 87.9203 | 89.0162 | 119.102 | 89.8992 | 99.4723 |
| C[C@@H](c1cccc(C#N)c1)n1cc(Cl)cc(C(N)=O)c1=N.Cl | 64.263 | 72.4154 | 105.334 | 111.16 | 92.5611 | 127.503 | 97.2998 | 98.9566 | 96.0836 | 104.787 | 81.7502 | 103.626 |
| O=C(Nc1cccnn1)N1CC(C/C=C/c2cncc(Oc3ccc(C(F)(F)F)cn3)n2)C1 | 97.9448 | 112.944 | 119.523 | 106.69 | 131.321 | 196.307 | 116.585 | 92.4101 | 84.7499 | 109.288 | 99.5215 | 99.7577 |
| Cc1cnc(Nc2ccc(F)cc2Cl)nc1-c1c[nH]c(C(=O)N[C@H](CO)c2cccc(Cl)c2)c1 | 6.951 | 113.857 | 5.763 | 41.0342 | 51.8597 | 63.6391 | 9.819 | 57.8689 | 10.9302 | 34.4005 | 7.352 | 19.5504 |
| CNC(=O)Nc1ccc(-c2nc(N3CC4CCC(C3)O4)c3cnn(C4CCC5(CC4)OCCO5)c3n2)cc1 | 5.834 | 97.6391 | 5.978 | 53.3135 | 4.885 | 48.532 | 5.396 | 31.9288 | 9.5061 | 63.2179 | 14.6121 | 40.9027 |
